Laboratory results as given in article PMC8941859, “The FDA-Approved Drug Cobicistat Synergizes with Remdesivir To Inhibit SARS-CoV-2 Replication In Vitro and Decreases Viral Titers and Disease Progression in Syrian Hamsters” (mBio, 2022).
Several values for one entry are separate records, joined by “and”; a condition that tells them apart may be missing. Equal entries are not always repeated. Where two headings read alike, the source gives them in different places.

Tests used:
SARS-CoV-2 [1] = format: cell-based; settings: 5 to 10 μM; MTT and crystal violet; Calu-3, T84, Vero E6
[2] = tested on: Vero E6 cells transfected with the SARS-CoV-2 S-protein; assay: Syncytium formation assay; format: cell-based, African green monkey; settings: 1, 5, 10 μM; 24 h posttransfection
3CLpro = 3CLpro (Severe acute respiratory syndrome coronavirus 2, UniProt P0DTD1); assay: 3CLpro fluorescence resonance energy transfer (FRET) assay; format: biochemical, SARS-CoV-2; settings: for FRET-determined EC50 (3CLpro): normalized to untreated control, nonlinear regression
Experimental: The activity of 3CLpro was measured by FRET assay (BPS Bioscience, San Diego, CA, USA) according to the manufacturer’s instructions and as previously described ([34]). […] Wells without drugs or without 3CLpro were used as positive control of 3CLpro activity and blank control, respectively. After a 30-min incubation, the 3CLpro substrate was added to each well and the plate was stored for 4 h in the dark. The fluorescence signal was acquired on an Infinite 200 PRO (Tecan, Männedorf, Switzerland) using an excitation wavelength of 360 nm and a detection wavelength of 460 nm. Relative 3CLpro was expressed as percentage of the positive control after subtraction of the blank.

SARS-CoV-2 [3] = assay: microbe, parasite or virus in culture; format: cell-based
SARS-CoV-2 [4] = assay: SARS-CoV-2-infected Syrian hamsters
SARS-CoV-2 [5] = assay: Replication-competent virus in supernatant (plaque assay); format: cell-based; settings: Vero E6 cells, MOI 0.05, 2.5-10 μM, 24 h postinfection
[6] = target: spike protein and human ACE2 (Severe acute respiratory syndrome coronavirus 2, UniProt P0DTC2); assay: cell-based; set-up: species or system SARS-CoV-2; human; settings: 1 h preincubation, luciferase after 24 h; read-out: IC50 of S-glycoprotein-mediated cell fusion
in vitro = format: cell-based; settings: human; African green monkey
Experimental: Cell viability was evaluated by the MTT [3-(4,5-dimethylthiazol-2-yl)-2,5-diphenyl tetrazolium bromide] assay and by crystal violet staining as previously described ([76], [77]). Briefly, the MTT assay was conducted using the CellTiter 96 nonradioactive cell proliferation assay (MTT) (Promega; Madison, WI, USA). Cells were plated in a 96‐well plate at a concentration of 3 × 10^6 cells/mL in 100 μL of medium. The MTT solution (15 μL) was added to each well, and after 2 to 4 h, the reaction was stopped by the addition of 100 μL of 10% SDS. Absorbance values were acquired using an Infinite 200 PRO (Tecan, Männedorf, Switzerland) multimode plate reader at a 570-nm wavelength.
Data normality assumptions were tested by D’Agostino and Pearson normality test (for n > 3). Multiple-group comparisons were conducted by nonparametric Kruskal-Wallis test, followed by Dunn’s posttest, or by one-way or two-way analysis of variance (ANOVA) followed by Holm-Sidak or Dunnett posttests, respectively. Half-maximal inhibitory (IC50), effective (EC50), and cytotoxic (CC50) concentrations of the compounds were estimated by nonlinear regression after data normalization. […] Data analysis was conducted using GraphPad Prism v6 (GraphPad Software, San Diego, CA, USA). Synergy scores were calculated with the SynergyFinder web tool ([79]) using the Zero Interaction Potency (ZIP) model ([80]).

For `CC(C)c1nc(CN(C)C(=O)N[C@@H](CCN2CCOCC2)C(=O)N[C@H](CC[C@H](Cc2ccccc2)NC(=O)OCc2cncs2)Cc2ccccc2)cs1` [Cobicistat], the “Viability of infected cells” value (SARS-CoV-2 [1]) was “partially rescue viability of infected cells”, the Syncytium formation [2] was “decreased syncytium formation” and the “Effect on catalytic activity of 3CLpro” value (3CLpro; FRET assay, Fig. S3A) was “inactive”. For the same compound, the “FRET-determined EC50 (3CLpro)” value (3CLpro) was “Could not be calculated”, the “Effect on intracellular and supernatant viral RNA” value (SARS-CoV-2 [3]; Calu-3 cells, time course, low-micromolar concentrations, qPCR N1 and N2 primers) was “dose-dependent inhibitory effect” and the IC50 (SARS-CoV-2 [3]; Severe acute respiratory syndrome coronavirus 2, Calu-3, Vero E6 and T84 cells, MOI 0.05 and 0.5, treated 2 h postinfection, 48 h, read-out: IC50 (viral RNA release in supernatant), range) was 580 to 8760 nM. For the same compound, the “Tolerability of dosing regimen in vivo” value (SARS-CoV-2 [4]; 50 mg/kg) was “well tolerated”, the “Alveolar alterations: Alveolar edema” value (SARS-CoV-2 [4]; Day 3, single animal) was 2 and 0 and the “Alveolar alterations: Epithelial necrosis” value (SARS-CoV-2 [4]; Day 3, single animal) was 1 and 0 and (1). The “Alveolar alterations: Type II hyperplasia” value (SARS-CoV-2 [4]; Day 3, single animal) was 1–2 and 0, the “Pneumonia: Consolidated lung area (%)” value (SARS-CoV-2 [4]; Day 3, single animal) was 20% and 0% and <5% and the “Pneumonia: Inflammation score” value (SARS-CoV-2 [4]; Day 3, single animal) was 2–3 and (1) and 1. The “Pneumonia: Lung area affected (%)” value (SARS-CoV-2 [4]; Day 3, single animal) was 30% and <5% and 5–10%, the “Vascular alterations: Endothelialitis” value (SARS-CoV-2 [4]; Day 3, single animal) was 2–3 and (1) and 1–2 and the “Vascular alterations: Perivascular edema” value (SARS-CoV-2 [4]; Day 3, single animal) was 1–2 and 0. For the same compound, the “Vascular alterations: Perivascular lymphocytes” value (SARS-CoV-2 [4]; Day 3, single animal) was 1–2 and 0, the “Alveolar alterations: Alveolar edema” value (SARS-CoV-2 [4]; Day 5, single animal) was 3 and 2 and 2–3 and the “Alveolar alterations: Epithelial necrosis” value (SARS-CoV-2 [4]; Day 5, single animal) was 2 and 1. The “Alveolar alterations: Type II hyperplasia” value (SARS-CoV-2 [4]; Day 5, single animal) was 2–3 and 3 and 1–2, the “Pneumonia: Consolidated lung area (%)” value (SARS-CoV-2 [4]; Day 5, single animal) was 50% and 30% and 35% and the “Pneumonia: Inflammation score” value (SARS-CoV-2 [4]; Day 5, single animal) was 3 and 2–3. For the same compound, the “Pneumonia: Lung area affected (%)” value (SARS-CoV-2 [4]; Day 5, single animal) was 80% and 70% and 50%, the “Vascular alterations: Endothelialitis” value (SARS-CoV-2 [4]; Day 5, single animal) was 2–3 and 3 and the “Vascular alterations: Perivascular edema” value (SARS-CoV-2 [4]; Day 5, single animal) was 2–3 and 2. The “Vascular alterations: Perivascular lymphocytes” value (SARS-CoV-2 [4]; Day 5, single animal) was 2 and 1, the “Infectious progeny in the lung (PFU, plaque assay)” value (SARS-CoV-2 [4]; cobicistat 50 mg/kg oral daily, remdesivir 15 mg/kg i.p. daily, days 3 and 5 p.i.) was “significant decrease” and the “Levels of replication-competent virus in supernatant” value (SARS-CoV-2 [5]) was “able to decrease the levels of replication-competent virus”. The IC50 [6] was 3.83 µM and 3.8 µM and the CC50 at 48 h (in vitro) was 38.7 to 53 µM.
With `CC(C)CN(C[C@@H](O)[C@H](Cc1ccccc1)NC(=O)O[C@H]1CO[C@H]2OCC[C@H]21)S(=O)(=O)c1ccc(N)cc1` [Darunavir] the “FRET-determined EC50 (3CLpro)” value (3CLpro) was “Could not be calculated”.
In the case of `Cc1cccc(C)c1OCC(=O)N[C@@H](Cc1ccccc1)[C@@H](O)C[C@H](Cc1ccccc1)NC(=O)[C@H](C(C)C)N1CCCNC1=O` [Lopinavir], the EC50 (3CLpro) is reported as 219 µM.
In the case of `Cc1c(O)cccc1C(=O)N[C@@H](CSc1ccccc1)[C@H](O)CN1C[C@H]2CCCC[C@H]2C[C@H]1C(=O)NC(C)(C)C` [Nelfinavir], the “FRET-determined EC50 (3CLpro)” value (3CLpro) is reported as “Could not be calculated”.
In the case of `CCC(CC)COC(=O)[C@H](C)N[P@](=O)(OC[C@H]1O[C@@](C#N)(c2ccc3c(N)ncnn23)[C@H](O)[C@@H]1O)Oc1ccccc1` [Remdesivir, remdesivir], the IC50 (SARS-CoV-2 [3]; Severe acute respiratory syndrome coronavirus 2, Vero C1008, Vero E6 cells, MOI 0.5, 48 h, read-out: IC50 (viral RNA expression in supernatant)) is reported as 740 nM, the IC50 (SARS-CoV-2 [3]; Severe acute respiratory syndrome coronavirus 2, T84 cells, MOI 0.5, 48 h, read-out: IC50 (viral RNA expression in supernatant)) is reported as 350 nM and the “Alveolar alterations: Alveolar edema” value (SARS-CoV-2 [4]; Day 3, single animal) is reported as 0. For the same compound, the “Alveolar alterations: Epithelial necrosis” value (SARS-CoV-2 [4]; Day 3, single animal) was “(1) and 0”, the “Alveolar alterations: Type II hyperplasia” value (SARS-CoV-2 [4]; Day 3, single animal) was 0 and the “Pneumonia: Consolidated lung area (%)” value (SARS-CoV-2 [4]; Day 3, single animal) was 0%. The “Pneumonia: Inflammation score” value (SARS-CoV-2 [4]; Day 3, single animal) was “(1)”, the “Pneumonia: Lung area affected (%)” value (SARS-CoV-2 [4]; Day 3, single animal) was 5% and <5% and the “Vascular alterations: Endothelialitis” value (SARS-CoV-2 [4]; Day 3, single animal) was 0. For the same compound, the “Vascular alterations: Perivascular edema” value (SARS-CoV-2 [4]; Day 3, single animal) was “(1) and 0”, the “Vascular alterations: Perivascular lymphocytes” value (SARS-CoV-2 [4]; Day 3, single animal) was 0 and (1) and the “Alveolar alterations: Alveolar edema” value (SARS-CoV-2 [4]; Day 5, single animal) was 1 and 1–2 and 2. For the same compound, the “Alveolar alterations: Epithelial necrosis” value (SARS-CoV-2 [4]; Day 5, single animal) was 2, the “Alveolar alterations: Type II hyperplasia” value (SARS-CoV-2 [4]; Day 5, single animal) was 1 and 1–2 and the “Pneumonia: Consolidated lung area (%)” value (SARS-CoV-2 [4]; Day 5, single animal) was 25% and 35% and 30%. The “Pneumonia: Inflammation score” value (SARS-CoV-2 [4]; Day 5, single animal) was 2–3, the “Pneumonia: Lung area affected (%)” value (SARS-CoV-2 [4]; Day 5, single animal) was 40% and 70% and the “Vascular alterations: Endothelialitis” value (SARS-CoV-2 [4]; Day 5, single animal) was 2–3 and 2. For the same compound, the “Vascular alterations: Perivascular edema” value (SARS-CoV-2 [4]; Day 5, single animal) was “(1) and 1 and 2” and the “Vascular alterations: Perivascular lymphocytes” value (SARS-CoV-2 [4]; Day 5, single animal) was 2 and 1–2.
With `CCC[C@@]1(CCc2ccccc2)CC(O)=C([C@H](CC)c2cccc(NS(=O)(=O)c3ccc(C(F)(F)F)cn3)c2)C(=O)O1` [Tipranavir] the EC50 (3CLpro) was 47 µM.
